Assay results taken from the NIST ThermoML archive (doi:10.1016/j.fluid.2013.08.005).

Experiment: molar heat capacity at constant pressure; mn = molality of the nth substance listed, in mol/kg
Conditions: 101 kPa, Liquid, Large sample (1 g) DSC

CCCCCCCC[N+](C)(C)C.[Br-] [octyl trimethyl ammonium bromide] + O
molar heat capacity at constant pressure [J/K/mol]
Conditions	298.15 K	303.15 K	308.15 K	313.15 K
m1 = 0.00997	75.46	75.44	75.44	75.45
m1 = 0.01501	75.58	75.55	75.54	75.55
m1 = 0.025	75.69	75.66	75.65	75.66
m1 = 0.04	75.85	75.83	75.82	75.83
m1 = 0.05	75.95	75.93	75.92	75.93
m1 = 0.07502	76.27	76.24	76.23	76.25
m1 = 0.08	76.32	76.29	76.29	76.3
m1 = 0.08509	76.4	76.38	76.36	76.36
m1 = 0.09999	76.54	76.51	76.5	76.51
m1 = 0.1202	76.79	76.74	76.74	76.77
m1 = 0.125	76.85	76.82	76.81	76.81
m1 = 0.1397	76.98	76.95	76.93	76.93
m1 = 0.15	77.1	77.08	77.07	77.08
m1 = 0.16	77.21	77.19	77.17	77.15
m1 = 0.175	77.41	77.38	77.37	77.37
m1 = 0.1799	77.47	77.44	77.43	77.42
m1 = 0.1898	77.59	77.55	77.54	77.53
m1 = 0.2	77.66	77.63	77.61	77.61
m1 = 0.2197	77.9	77.87	77.85	77.83
m1 = 0.24	78.15	78.11	78.09	78.08
m1 = 0.25	78.24	78.2	78.18	78.17
m1 = 0.2601	78.37	78.32	78.29	78.28
m1 = 0.2751	78.52	78.47	78.44	78.42
m1 = 0.2801	78.66	78.63	78.59	78.56
m1 = 0.2999	78.81	78.74	78.69	78.67
m1 = 0.3251	79.06	78.99	78.94	78.91
m1 = 0.3497	79.28	79.2	79.15	79.13
m1 = 0.3749	79.51	79.43	79.39	79.37
m1 = 0.4	79.68	79.61	79.57	79.56
m1 = 0.4248	79.91	79.85	79.83	79.83
m1 = 0.4742	80.26	80.22	80.2	80.2
m1 = 0.5499	80.8	80.74	80.73	80.77
m1 = 0.6251	81.38	81.36	81.37	81.41
m1 = 0.7072	81.85	81.84	81.87	81.93
m1 = 1.277	85.58	85.68	85.8	85.96
m1 = 2.09	90.58	90.8	91.05	91.33
